Laboratory results taken from ChEMBL document CHEMBL4616651, “6-Deoxy- and 11-Hydroxytolypodiols: Meroterpenoids from the Cyanobacterium HT-58-2” (J Nat Prod, 2020).
Calls of active or inactive are those of the source. No cut-off for these calls is given here.

Legend:
Mus musculus = experiment: Antiinflammatory activity in mouse assessed as reduction in PMA induced ear edema topically administered per ear and measured after 200 mins; assay type: functional
Microglia [1] = experiment: Antiinflammatory activity against LPS-induced rat Primary neonatal microglia assessed as inhibition in TXB2 generation preincubated for 20 mins followed by PMA-stimulation and measured after 70 mins by immunoassay; assay type: functional, cell-based
Microglia [2] = experiment: Antiinflammatory activity against LPS-induced rat Primary neonatal microglia assessed as inhibition in superoxide anion generation preincubated for 20 mins followed by PMA-stimulation and measured after 70 mins by spectrophotometric method; assay type: functional, cell-based

C[C@]12CCC(=O)C=C1CC[C@@H]1[C@@H]2[C@@H](O)C[C@@]2(C)[C@H]1CC[C@]2(O)C(=O)CO [HYDROCORTISONE]
ED50 (Mus musculus): 20 µg

COC(=O)c1ccc2c(c1)C[C@H]1[C@]3(C)C[C@@H](O)[C@H]4C(C)(C)CC[C@@H](O)[C@]4(C)[C@H]3CC[C@]1(C)O2 [TOLYPODIOL]
ED50 (Mus musculus): 30 µg

CC(C(=O)O)c1ccc(-c2ccccc2)c(F)c1 (stereo not given) [FLURBIPROFEN]
IC50 (Microglia [1]): 0.1 µM

COC(=O)c1ccc2c(c1)C[C@H]1[C@]3(C)C[C@@H](O)[C@H]4C(C)(C)CC[C@@H](O)[C@]4(C)[C@H]3[C@@H](O)C[C@]1(C)O2
IC50 (Microglia [1]): 0.1 µM
inhibition (Microglia [2]): inactive
